Here are results for 2 compounds from paper PMC3695085, “Screening and Improving the Recombinant Nitrilases and Application in Biotransformation of Iminodiacetonitrile to Iminodiacetic Acid” (PLoS ONE, 2013).

What all share (type): biochemical
One experiment has as its target T1, GpN (Aeribacillus pallidus, UniProt Q0PIV8).
T1 construct: full-length, pET-28b(+), His-tag (Ni-NTA), E. coli BL21(DE3)
T1 sequence (Q0PIV8 1-323): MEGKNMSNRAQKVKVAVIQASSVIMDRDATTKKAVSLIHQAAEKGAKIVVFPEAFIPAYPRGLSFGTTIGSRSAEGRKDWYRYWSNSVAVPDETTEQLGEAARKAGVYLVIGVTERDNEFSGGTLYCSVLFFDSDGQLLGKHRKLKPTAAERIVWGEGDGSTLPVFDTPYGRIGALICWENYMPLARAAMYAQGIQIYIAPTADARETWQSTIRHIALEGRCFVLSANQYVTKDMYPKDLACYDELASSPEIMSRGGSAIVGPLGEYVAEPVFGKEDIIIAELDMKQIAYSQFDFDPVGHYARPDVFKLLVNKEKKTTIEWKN
The experiment in a line: GC-FID of ADPN consumed. To be noted: pH […] potassium phosphate, […] °C, […] min.

For a further experiment, the target named is T2, RjN (Rhodococcus rhodochrous, UniProt Q03217).
T2 construct: gene nitA; full-length, pET-28b(+), His-tag (Ni-NTA), E. coli BL21(DE3)
T2 sequence (Q03217 1-366 limits assumed): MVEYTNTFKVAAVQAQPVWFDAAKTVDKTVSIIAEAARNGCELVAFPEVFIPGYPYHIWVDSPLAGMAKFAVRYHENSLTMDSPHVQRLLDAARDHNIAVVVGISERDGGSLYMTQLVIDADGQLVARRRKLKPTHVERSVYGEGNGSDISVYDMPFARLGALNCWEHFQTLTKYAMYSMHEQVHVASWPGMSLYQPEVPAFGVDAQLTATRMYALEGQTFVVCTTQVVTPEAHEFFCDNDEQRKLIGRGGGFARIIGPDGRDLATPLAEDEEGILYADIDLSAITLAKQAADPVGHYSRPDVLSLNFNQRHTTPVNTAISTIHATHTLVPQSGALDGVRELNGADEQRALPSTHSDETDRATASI
Description: GC-FID of ADPN consumed. To be noted: 50 mM ADPN, pH 7.5, 50 mM potassium phosphate, 35 °C, 30 min.

For another experiment, the target named is T3, TpN (Thalassiosira pseudonana, UniProt B8C1M9).
T3 construct: gene NIT2; full-length, pET-28b(+), His-tag (Ni-NTA), E. coli BL21(DE3)
Description: GC-FID of ADPN consumed. To be noted: 50 mM ADPN, pH 7.5, 50 mM potassium phosphate, 35 °C, 30 min.

For the next experiment, the target named is T4, ApN (Arthrobacter pascens, UniProt E1CJF8).
T4 construct: gene inhB; full-length, pET-28b(+), His-tag (Ni-NTA), E. coli BL21(DE3)
T4 sequence (E1CJF8 1-359): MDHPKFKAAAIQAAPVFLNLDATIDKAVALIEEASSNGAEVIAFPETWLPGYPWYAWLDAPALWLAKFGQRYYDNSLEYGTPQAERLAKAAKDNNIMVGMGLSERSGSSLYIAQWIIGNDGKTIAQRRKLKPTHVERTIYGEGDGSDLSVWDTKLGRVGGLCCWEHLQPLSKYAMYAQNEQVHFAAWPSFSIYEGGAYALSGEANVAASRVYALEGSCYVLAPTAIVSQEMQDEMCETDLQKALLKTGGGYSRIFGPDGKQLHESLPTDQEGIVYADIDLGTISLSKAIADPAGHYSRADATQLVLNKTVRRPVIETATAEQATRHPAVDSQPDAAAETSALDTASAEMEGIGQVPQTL
The experiment in a line: GC-FID of ADPN consumed. To be noted: 50 mM ADPN, pH 7.5, 50 mM potassium phosphate, 35 °C, 30 min.

The target in another experiment is T5, AcN (Acidovorax facilis, UniProt Q1W2L4).
T5 construct: gene nitA; full-length, pET-28b(+), His-tag (Ni-NTA), E. coli BL21(DE3); synthesised gene
Description: initial velocity, HPLC, Michaelis-Menten fit. To be noted: pH 7.5, 50 mM potassium phosphate, 35 °C; unit printed as mM^−1 (mM meant); 10.5–262.5 mM substrate. The text has this:
initial velocity, HPLC, Michaelis-Menten fit on AcN

On to `N#CCCCCC#N` [adiponitrile], for which the “GC-FID of ADPN consumed” value at GpN, at RjN, at TpN and on ApN was “All nitrilases demonstrated ADPN hydrolysis activity” in each case.
With `N#CCNCC#N` [iminodiacetonitrile], the “Km mM^-1” value on AcN came out at 0.76 ± 0.02 mM⁻¹.
